Measured values taken from US11873295B2, “Allosteric chromenone inhibitors of phosphoinositide 3-kinase (PI3K) for the treatment of disease” (Petra Pharma Corporation, priority 2021, dated 2024).
pIC50: −log10 of the molar value.

Assays:
[1] = target: T1, human full length PIK3KA H1047R mutant (p110α/p85α complex) (Homo sapiens, UniProt P42336, H1047R); assay: PI3K-alpha kinase (PIK3CA) biochemical activity, H1047R mutant, ADP-Glo; conditions: PI3K-α (PIK3CA) biochemical, H1047R mutant, Soy PI lipid substrate
T1 construct: Recombinant, catalytically active human full length PIK3KA Wild-type and H1047R mutant were purchased as 1:1 complex; 6xHis (N); purchased EMD Millipore Sigma 14-792M
T1 sequence (P42336 whole entry H1047R): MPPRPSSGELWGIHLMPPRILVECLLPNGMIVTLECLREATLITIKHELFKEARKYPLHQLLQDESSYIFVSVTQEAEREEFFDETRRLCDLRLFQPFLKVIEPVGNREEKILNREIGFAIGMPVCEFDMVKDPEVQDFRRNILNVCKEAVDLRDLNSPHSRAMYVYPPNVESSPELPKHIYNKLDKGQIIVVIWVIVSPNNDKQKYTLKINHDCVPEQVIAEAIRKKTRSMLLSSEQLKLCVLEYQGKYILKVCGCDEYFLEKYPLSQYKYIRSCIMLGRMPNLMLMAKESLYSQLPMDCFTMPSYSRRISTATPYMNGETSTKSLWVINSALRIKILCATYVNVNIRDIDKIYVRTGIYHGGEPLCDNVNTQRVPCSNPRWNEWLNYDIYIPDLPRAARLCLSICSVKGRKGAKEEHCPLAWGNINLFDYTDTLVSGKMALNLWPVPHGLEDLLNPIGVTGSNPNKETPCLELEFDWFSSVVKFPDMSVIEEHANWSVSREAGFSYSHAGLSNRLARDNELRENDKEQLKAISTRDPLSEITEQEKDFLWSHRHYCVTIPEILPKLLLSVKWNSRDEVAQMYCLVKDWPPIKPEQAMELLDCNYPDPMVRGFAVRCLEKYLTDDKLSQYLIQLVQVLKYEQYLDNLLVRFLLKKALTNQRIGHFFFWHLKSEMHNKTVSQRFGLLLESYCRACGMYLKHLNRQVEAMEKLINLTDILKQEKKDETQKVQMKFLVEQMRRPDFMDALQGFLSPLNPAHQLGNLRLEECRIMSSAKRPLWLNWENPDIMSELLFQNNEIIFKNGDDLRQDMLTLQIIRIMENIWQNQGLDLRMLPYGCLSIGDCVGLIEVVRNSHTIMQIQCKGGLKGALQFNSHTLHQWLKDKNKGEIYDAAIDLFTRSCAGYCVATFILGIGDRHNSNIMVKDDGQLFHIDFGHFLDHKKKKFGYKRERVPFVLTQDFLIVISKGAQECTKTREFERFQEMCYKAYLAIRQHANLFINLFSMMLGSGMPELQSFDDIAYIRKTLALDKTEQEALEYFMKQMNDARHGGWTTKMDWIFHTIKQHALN
T1 sequence (P27986 whole entry partner): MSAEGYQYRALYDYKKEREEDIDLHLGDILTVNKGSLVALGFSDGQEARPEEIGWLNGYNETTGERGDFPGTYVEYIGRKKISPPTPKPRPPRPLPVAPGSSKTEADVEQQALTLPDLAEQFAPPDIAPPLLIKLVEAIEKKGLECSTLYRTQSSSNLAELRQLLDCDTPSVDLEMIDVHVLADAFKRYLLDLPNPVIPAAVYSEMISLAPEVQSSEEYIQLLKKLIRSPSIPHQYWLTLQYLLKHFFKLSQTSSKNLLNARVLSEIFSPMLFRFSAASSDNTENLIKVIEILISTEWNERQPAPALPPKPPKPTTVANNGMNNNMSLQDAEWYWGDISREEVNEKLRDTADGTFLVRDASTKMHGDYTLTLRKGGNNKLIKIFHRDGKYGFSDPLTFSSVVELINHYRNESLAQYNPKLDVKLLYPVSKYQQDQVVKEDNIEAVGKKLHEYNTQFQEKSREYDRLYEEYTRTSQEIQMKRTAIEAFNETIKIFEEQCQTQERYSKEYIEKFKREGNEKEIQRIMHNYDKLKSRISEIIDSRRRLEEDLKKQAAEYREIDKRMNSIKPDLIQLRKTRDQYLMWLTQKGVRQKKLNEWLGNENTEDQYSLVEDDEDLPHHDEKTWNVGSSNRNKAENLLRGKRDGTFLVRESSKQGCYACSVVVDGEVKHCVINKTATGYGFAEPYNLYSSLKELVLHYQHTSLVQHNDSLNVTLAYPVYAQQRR
How it was run: (§1)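 ADP formation, read by ADP-Glo, is run to about 10% ATP turnover at 27 °C with 20 μM ATP and 50 μM PIP2diC8 or soy PI. WT or H1047R p110α/p85α (1–5 nM) is pre-incubated 1 h with compound in HEPES pH 7.4/MgCl2/Triton buffer, 1% DMSO. 10-point 1:3 series, logistic IC50 versus no-enzyme and DMSO controls.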

[2] = target: T2, human full length PIK3KA Wild-type (p110α/p85α complex) (Homo sapiens, UniProt P42336); assay: PI3K-alpha kinase (PIK3CA) biochemical activity, wild-type, ADP-Glo; conditions: PI3K-α (PIK3CA) biochemical, Soy PI lipid substrate
T2 construct: Recombinant, catalytically active human full length PIK3KA Wild-type and H1047R mutant were purchased as 1:1 complex; 6xHis (N); purchased EMD Millipore Sigma 14-602M
How it was run: as §1

[3] = tested on: PI3K-α (PIK3CA) in MDA-MB-453 cells; assay: PI3K-alpha kinase (PIK3CA) activity in vitro cell based assay, MDA-MB-453 cells, AlphaLisa SureFire; conditions: 0% FBS, 3 hours treatment, relative IC50
Method: PI3K-Alpha Kinase (PIK3CA) Activity In Vitro Cell Based Assay and Determining IC50 Values for Inhibitors
The MDA-MB-453 (ATCC-HTB-131) cell line was obtained from the American Type Culture Collection (Manassas, VA). Cells were maintained in Dulbecco's Modified Eagle Media (DMEM, Gibco 11965-092) supplemented with 10% Fetal Bovine Serum, heat inactivated (FBS HI, Gibco 10082-147), 1× non-essential amino acids (NEAA, Gibco 11140-050), and 1 mM sodium pyruvate (Gibco 11360-070). Cultures were maintained in a humidified incubator at 37° C. under 5% CO2/95% air.
For compound testing in 0% FBS, MDA-MB-453 cells were seeded at a density of 1.5×10^4 cells per well in white 384-well plates in 20 μl of Minimum Essential Media (MEM) assay media with 1×NEAA, 1 mM sodium pyruvate, and 1 μg/mL human insulin (Sigma I9278). Compounds dissolved in 10 mM stock solutions in DMSO were serially diluted 1:3 in DMSO to generate a 10-point dilution series and plated using an acoustic liquid handler system (Echo 550 Series Liquid Handler, Labcyte). A 5× intermediate compound dilution plate in MEM with 1×NEAA and 1 mM sodium pyruvate (150 μM starting compound concentration in 1.5% DMSO) was then prepared. Five μl of the intermediate serially diluted compounds were added to the cell plate to final concentrations ranging from […] in 0.3% DMSO. 0.3% DMSO alone was used to establish the maximum (MAX) signal and GDC-0032 at a final concentration of 1 μM was used as a reference compound for the minimum (MIN) signal. After 3 hours treatment, the medium was removed, and the cells lysed in 10 μL of 1× SureFire Lysis buffer with shaking for 10 minutes at room temperature. The Acceptor Mix (Reaction Buffer 1+Reaction Buffer 2+Activation Buffer+SureFire Ultra Acceptor Beads) was prepared by diluting Activation buffer 25-fold in combined Reaction Buffer 1 and Reaction Buffer 2. The Acceptor beads were diluted 50-fold in the combined Reaction Buffers. Five μL of Acceptor Mix was added to each well, the plate was sealed and covered with foil and incubated for 1 hour at room temperature. The Donor Mix (dilution buffer+SureFire Ultra Donor Beads) was prepared by diluting Donor Beads 50-fold in dilution buffer. Five μL of the Donor Mix was added to each well and the plate sealed and covered with foil and incubated for 1 hour at room temperature in the dark. The plates were read on a Neo2 plate reader instrument from Biotek using standard AlphaLisa settings. Compounds were tested in duplicate and the average % inhibition at each compound concentration was used to generate a single dose response curve. The data were processed using the Genedata-Screener tool. Relative IC50 values were determined using luminescence units by calculating percent inhibition with respect to the in-plate “MIN” (GDC-0032 reference control) and “MAX” (DMSO) controls. The data was analyzed using a 4-parameter nonlinear logistic equation (four-parameter logistic concentration-response curve): Y=bottom+[(top−bottom)/1+(X/IC50)slope] where Y=% inhibition, X=concentration of inhibitor, bottom=minimum value of y attained by curve-fit, top=maximum value of y attained by curve-fit and slope=steepness of curve at the IC50. % Inhibition=[(signal at X−median Min)/(median Max−median Min)]×100 IC50: concentration of compound that reduces a given response (ligand binding, enzyme response) by 50%. Relative IC50: concentration giving half the compound's maximum response.
For IC50 values shown in Table B, “A” means IC50<50 nM; “B” means IC50 ranging between 50 nM and 100 nM; “C” means IC50 ranging between 100 nM and 500 nM; “D” means IC50>500 nM.

Row | Compound | pIC50 [1] | pIC50 [2] | pIC50 [3] | pIC50 ([3]; Homo sapiens, MDA-MB-453, 3 h)
1 | 2-[[(1R)-1-[3,6-Dimethyl-4-oxo-2-[4-(1H-pyrazol-5-yl)phenyl]chromen-8-yl]ethyl]amino]benzoic acid [Example 169] | > 6.30 | > 6.30 | > 7.30 | 
2 | Cc1cc(C(C)Nc2ccccc2C(=O)O)c2oc(-c3cccc(C(C)(C)C#N)c3)cc(=O)c2c1 (single isomer, unassigned; isomer 1) [Example 4, 2-[1-[2-[3-(1-Cyano-1-methyl-ethyl)phenyl]-6-methyl-4-oxo-chromen-8-yl]ethylamino]benzoic acid, Isomer 1] | < 5.00 | < 5.00 |  | < 6.30
3 | Cc1cc(C(C)Nc2ccccc2C(=O)O)c2oc(-c3ccc(C4(C#N)CC4)cc3)cc(=O)c2c1 (single isomer, unassigned; isomer 1) [Example 52, 2-[1-[2-[4-(l-Cyanocyclopropyl)phenyl]-6-methyl-4-oxo-chromen-8-yl]ethylamino]benzoic acid, Isomer 1] | 5.00 to 5.30 | 5.00 to 5.30 |  | < 6.30
4 | Cc1cc(C(C)Nc2cccc(F)c2C(=O)O)c2oc(-c3cccc(F)c3)c(C)c(=O)c2c1 (single isomer, unassigned; isomer 1) [Example 105, 2-Fluoro-6-[1-[2-(3-fluorophenyl)-3,6-dimethyl-4-oxo-chromen-8-yl]ethylamino]benzoic acid, Isomer 1] | > 6.30 | 5.30 to 6.00 | > 7.30 | 
5 | COc1ccc(NC(C)c2cc(C)cc3c(=O)c(C)c(-c4ccccc4)oc23)c(C(=O)O)n1 (single isomer, unassigned; isomer 1) [Example 109, 3-[1-(3,6-Dimethyl-4-oxo-2-phenyl-chromen-8-yl)ethylamino]-6-methoxy-pyridine-2-carboxylic acid, Isomer 1] | > 6.30 | 6.00 to 6.30 | > 7.30 | 
6 | Cc1cc(C(C)Nc2ccccc2C(=O)O)c2oc(-c3ccccc3)c(F)c(=O)c2c1 (single isomer, unassigned; isomer 1) [Example 132, 2-[1-(3-Fluoro-6-methyl-4-oxo-2-phenyl-chromen-8-yl)ethylamino]benzoic acid, Isomer 1] | > 6.30 | 5.30 to 6.00 |  | > 7.30
7 | Cc1cc([C@@H](C)Nc2ccc(C#N)cc2C(=O)O)c2oc(-c3ccccc3)c(C)c(=O)c2c1 (single isomer, unassigned; isomer 1) [Example 157] | 5.00 to 5.30 | 5.00 to 5.30 | < 6.30 | 
8 | Cc1cc([C@@H](C)Nc2ccc(C#N)nc2C(=O)O)c2oc(-c3ccccc3)c(C)c(=O)c2c1 (single isomer, unassigned; isomer 1) [Example 159] | > 6.30 | 6.00 to 6.30 |  | > 7.30
9 | Cc1cc(C(C)Nc2ccccc2C(=O)O)c2oc(-c3ccc(C(=O)N(C)C)cc3)cc(=O)c2c1 (single isomer, unassigned; isomer 2) [Example 50, 2-[1-[2-[4-(Dimethylcarbamoyl)-phenyl]-6-methyl-4-oxo-chromen-8-yl]ethylamino]benzoic acid, Isomer 2] | 5.00 to 5.30 | < 5.00 |  | < 6.30
10 | Cc1cc(C(C)Nc2ccccc2C(=O)O)c2oc(-c3ccc(N4CCCC4)cc3)cc(=O)c2c1 (single isomer, unassigned; isomer 2) [Example 55, 2-[1-[6-Methyl-4-oxo-2-(4-pyrrolidin-1-ylphenyl)chromen-8-yl]ethylamino]benzoic acid, Isomer 2] | > 6.30 | 5.30 to 6.00 |  | 6.30 to 7.00
11 | Cc1cc(C(C)Nc2ccccc2C(=O)O)c2oc(-c3ccccc3)c(C#N)c(=O)c2c1 (single isomer, unassigned; isomer 2) [Example 62, 2-[1-(3-Cyano-6-methyl-4-oxo-2-phenyl-chromen-8-yl)ethylamino]benzoic acid, Isomer 2] | > 6.30 | > 6.30 |  | > 7.30
12 | Cc1cc(C(C)Nc2cccc(F)c2C(=O)O)c2oc(-c3ccccc3F)c(C)c(=O)c2c1 (single isomer, unassigned; isomer 2) [Example 104, 2-Fluoro-6-[1-[2-(2-fluorophenyl)-3,6-dimethyl-4-oxo-chromen-8-yl]ethylamino]benzoic acid, Isomer 2] | 6.00 to 6.30 | < 5.00 |  | 6.30 to 7.00
13 | Cc1cc([C@@H](C)Nc2ccccc2C(=O)O)c2oc(-c3ccc(-c4ccc(C#N)cc4)cc3)c(C)c(=O)c2c1 [Example 172, 2-[[(1R)-1-[2-[4-(4-Cyanophenyl)phenyl]-3,6-dimethyl-4-oxo-chromen-8-yl]ethyl]amino]benzoic acid] |  |  |  | 7.00 to 7.30

The remaining lines, values ahead:

Row | pIC50 [1] | pIC50 [2] | pIC50 [3] | pIC50 ([3]; Homo sapiens, MDA-MB-453, 3 h) | Compound
14 |  |  |  | 7.00 to 7.30 | Cc1cc([C@@H](C)Nc2ccccc2C(=O)O)c2oc(-c3ccc(-c4cccc(C#N)c4)cc3)c(C)c(=O)c2c1 [Example 173, 2-[[(1R)-1-[2-[4-(3-Cyanophenyl)phenyl]-3,6-dimethyl-4-oxo-chromen-8-yl]ethyl]amino]benzoic acid]
15 |  |  |  | > 7.30 | Cc1cc([C@@H](C)Nc2ccccc2C(=O)O)c2oc(-c3cccc(-c4ccccc4C#N)c3)c(C)c(=O)c2c1 [Example 174, 2-[[(1R)-1-[2-[3-(2-Cyanophenyl)phenyl]-3,6-dimethyl-4-oxo-chromen-8-yl]ethyl]amino]benzoic acid]
16 |  |  |  | 7.00 to 7.30 | Cc1cc([C@@H](C)Nc2ccccc2C(=O)O)c2oc(-c3cccc(-c4ccc(C#N)cc4)c3)c(C)c(=O)c2c1 [Example 175, 2-[[(1R)-1-[2-[3-(4-Cyanophenyl)phenyl]-3,6-dimethyl-4-oxo-chromen-8-yl]ethyl]amino]benzoic acid]
17 |  |  |  | 7.00 to 7.30 | Cc1cc([C@@H](C)Nc2ccccc2C(=O)O)c2oc(-c3cccc(-c4cccc(C#N)c4)c3)c(C)c(=O)c2c1 [Example 176, 2-[[(1R)-1-[2-[3-(3-Cyanophenyl)phenyl]-3,6-dimethyl-4-oxo-chromen-8-yl]ethyl]amino]benzoic acid]
18 |  |  |  | > 7.30 | Cc1cc([C@@H](C)Nc2ccccc2C(=O)O)c2oc(-c3ccc(-c4ccccc4C#N)cc3)c(C)c(=O)c2c1 [Example 177, 2-[[(1R)-1-[2-[4-(2-Cyanophenyl)phenyl]-3,6-dimethyl-4-oxo-chromen-8-yl]ethyl]amino]benzoic acid]
19 |  |  |  | > 7.30 | Cc1cc([C@@H](C)Nc2ccccc2C(=O)O)c2oc(-c3cccc(-n4cc(C#N)cn4)c3)c(C)c(=O)c2c1 [Example 178, 2-[[(1R)-1-[2-[3-(4-Cyanopyrazol-1-yl)phenyl]-3,6-dimethyl-4-oxo-chromen-8-yl]ethyl]amino]benzoic acid 2,2,2-trifluoroacetic acid]
